From patent US11912676B1, “N'-[(4-chlorobenzoyl)oxy]-1,3-benzothiazole-2-carboximidamide as an antitumor and antimicrobial compound” (KING FAISAL UNIVERSITY, priority 2023, dated 2024)

How the values were obtained:
[1] = tested on: human prostate cancer cells (PC3); test: Cytotoxicity by SRB assay, PC3 cells; assay type: cell-based; conditions: 0.01 μM to 100 μM, 72 h
Method: (§1) The human prostate cancer cells (PC3) and human osteosarcoma cells (MG-63) were obtained from Nawah Scientific Inc. (Mokatam, Cairo, Egypt) and cultured in DMEM (Dulbecco's modified eagle's medium), Gibco, USA, supplemented with fetal bovine serum (FBS) at a concentration of 10% and 100 U/mL of penicillin and streptomycin (PS). The Cells were incubated at 37° C. in a humidified environment that contained 5% CO2. Cells were seeded in 96-well plates as aliquots of 100 μL cell suspension and incubated in a complete media for 24 h. afterward, cells were treated with N′-[(4-chlorobenzoyl)oxy]-1,3-benzothiazole-2-carboximidamide at diverse concentrations ranging from 0.01 μM to 100 μM for 72 h. Then, cells were fixed at 4° C. for one hour with 150 μL of 10% trichloroacetic acid (TCA). After washing the cells five times with distilled water, 70 μL of sulforhodamine (SRB) solution (0.4% w/v) was added and incubated for 10 min at room temperature in a dark place. […] Then, 150 μL of Tris pH 10.5 (10 mM) was added, and the absorbance was measured at 540 nm using a BMG LABTECH®--FLUOstar Omega microplate reader (Ortenberg, Germany). Half maximal inhibitory concentrations (IC50) values were calculated for each experiment using GraphPad Prism 6 software. […] The inhibition was calculated using the following equation: Inhibition %=100−Average Viability

[2] = tested on: human osteosarcoma cells (MG-63); test: Cytotoxicity by SRB assay, MG-63 cells; assay type: cell-based; conditions: 0.01 μM to 100 μM, 72 h
Method: as §1

N/C(Cc1nc2ccccc2s1)=N\OC(=O)c1ccc(Cl)cc1
antiproliferative activity against PC3 cells [1]: excellent antiproliferative activities
antiproliferative activity against MG-63 cells [2]: excellent antiproliferative activities
melting point: 160 to 162 °C
